# Measured values reported in patent US4826873A, “2,3-dihydroxy-3-phenyl-N-(2-phenyl-ethyl)-propionic acid amides derivatives thereof” (priority 1986, dated 1989).
# Key:
# [1] = tested on: diene conjugates in liver microsomes of CCl4-intoxicated mice; assay: CCl4-initiated lipid peroxidation, diene conjugates in vivo (Table 6); parameters: species or system mice (male Kunming strain); conditions: 250 mg/kg, 1 ml/kg CCl4
# Description: (§1) Male Kunming strain mice weighing 18-22 grams were used throughout the experiments. The compound to be tested was suspended in 5% Tween 80 and given orally by gavage. The vehicle of 5% Tween 80 solution was administered to control mice via the same route. In the vitro experiments,the compound was dissolved in dimethylformamide and added directly into the incubation mixture.
# (§2) CCl4 hepatotoxicity has been considered to be due to formation of free radicals which initiate lipid peroxidation or covalent binding to macromolecules of microsomes. Thus, the structures and function of cell membranes were destroyed. The effect of the compound on CCl4 induced lipid peroxidation (malonic dialdehyde, MDA, in vitro, and diene conjugates in vivo) and ^14 CCl4 covalent binding to lipids and proteins of microsomes were investigated.
# Diene conjugates: Mice were given two doses of 250 mg/kg of the compound on the first day and followed by the same dose on the second day and then received an injection of 1 ml/kg of CCl4. The mice were killed 1 h after the CCl4 injection. The diene conjugates in liver microsomes were extracted with chloroform-methanol (2:1) and washed with methanol 0.9% NaCl solution. The absorption of diene conjugates in the chloroform layer at 243 nm was measured with spectrophotometer.
# [2] = tested on: NADPH-cytochrome c reductase; assay: Hepatic NADPH-cytochrome c reductase in mice (Table 7); format: in vivo, mice (male Kunming strain)
# Description: as §1
# The liver microsomal cytochrome P-450 plays a key role in the detoxification of xenobiotics. […] Mice were administered 250 mg/kg of the compound once daily for 3 days. The control mice received the vehicle. The mice were killed after fasting overnight. Liver microsomes were prepared and microsomal monooxygenases were determined.
# [3] = tested on: serum and liver transaminase (GPT); assay: Effect on serum and liver transaminase (GPT) levels of normal mice (Table 5); format: in vivo, mice (male Kunming strain)
# Description: as §1
# Groups of mice were administered the vehicle or 250 mg/kg of the compound once daily for 7 consecutive days. The serum and liver GPT were determined 24 h after the last dose administration.
# [4] = tested on: microsomal proteins; assay: 14CCl4 covalent binding to microsomal proteins; format: biochemical, mice; conditions: 1 mM, NADPH-reduced liver microsomes
# Description: as §1, §2
# The condition of incubation was similar to that of MDA production. The compound was pre-incubated with NADPH-reduced liver microsomes for 10 minutes. The final concentration of the compound was 1 mM. ^14 CCl4 0.5 uci was added to the incubation mixture. Incubation was continued for another 60 minutes. The radio-activity of ^14 CCl4 in microsomal lipids and proteins was separated by the method of extraction of diene conjugates and counted by liquid scintillation.
# [5] = tested on: barbital sleeping time in mice; assay: Barbital sleeping time in mice (Table 8); format: in vivo, mice (male Kunming strain)
# Description: as §1
# In another experiment, mice were given a dose of 250 mg/kg of the compound. […] The sleeping time was estimated by recording the interval of disappearance and recovery of righting reflex. […] It means that the prolongation of pentobarbital sleeping time by the compound was due to the inhibition of liver drug metabolism enzyme.
# [6] = tested on: thioacetamide hepatotoxicity in mice; assay: Protective action against thioacetamide hepatotoxicity in mice (Table 4); format: in vivo, mice (male Kunming strain)
# Description: as §1
# The parameters adopted for hepatotoxicicity included serum tranaminase (SGPT), liver triglycerides, and pathological examination of liver tissues. The liver lesions were scored mainly by the extent of inflammation and necrosis and graded from 0 to 4.
# In the experiment of thioacetamide hepatotoxicity, mice were treated according to the procedure of CCl4 intoxication as described above except that thioacetamide 50 mg/kg was injected instead of CCl4.
compound,measurement,setting,value
"CN(CCc1ccccc1)C(=O)C(O)C(O)c1ccccc1 (centres unmarked) [Compound, 2,3-dihydroxy-N-methyl-3-phenyl-N-(2-phenylethyl)-propionic acid amide]",diene conjugates production in livers (in words),[1]; two doses first day and same dose second day,would not inhibit diene conjugates production
same,Diene conjugates,"[1]; in vivo, number of determinations 8, control 55.8 ± 2.3",54.8 ± 3.3 OD × 100/g liver
same,NADPH-cytochrome C reductase,"[2]; 250 mg/kg day × 3, control 103 ± 2.5, P <0.01",148 ± 2.5 nmol cytochrome c reduced/min/
same,NADPH-cytochrome c reductase activity (in words),"[2]; 250 mg/kg once daily, 3 days",increased significantly
same,SGPT level of normal mice (in words),"[3]; 250 mg/kg once daily, 7 days",slightly higher than that of the control but the difference was not significant
same,SGPT (± SE),"[3]; normal mice, 250 mg/kg/day × 7, 8 per group, control 217 ± 17.5",272 ± 27.8 unit %
same,"LGPT (liver GPT, ± SE)","[3]; normal mice, 250 mg/kg/day × 7, 8 per group, control 260 ± 11.6",234 ± 13.6 unit %
same,covalent binding of 14CCl4 to microsomal proteins (in words),[4],not inhibited
same,Sleeping time (X ± SE),"[5]; 1 h before barbital 200 mg/kg, 10 per group, control 197 ± 27, P >0.05",172 ± 13
same,barbital sleeping time (in words),[5]; prior administration of compound,did not affect sleeping time
same,SGPT (± SE),"[6]; 250 mg/kg × 2, thioacetamide 50 mg/kg ip, 9 per group, control 1696 ± 231, footnote <0.05",1045 ± 166 unit %
same,Liver lipids (± SE),"[6]; 250 mg/kg × 2, thioacetamide 50 mg/kg ip, control 61 ± 11.7",59 ± 11.3 mg/g
same,"protection against thioacetamide hepatotoxicity (conclusion, in words)","[6]; mouse, in vivo",protected against thioacetamide hepatotoxicity
same,"effect on SGPT levels, thioacetamide hepatotoxicity (in words)",[6]; thioacetamide 50 mg/kg,markedly lowered the SGPT levels
